Test results from patent publication US10597388B2, “Pyridazinone herbicides” (FMC CORPORATION, priority 2014, dated 2020).

Tests used:
Assay in all cases: Test D controlled growth environment herbicide test, pre- and postemergence
Type in all cases: in vivo
[1] = test system: ryegrass, Italian (Italian ryegrass, Lolium multiflorum)
Outline: (§1)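 Pre-emergence: seeds sown in silt loam soil were sprayed with compound in a non-phytotoxic solvent mix containing surfactant. Post-emergence: plants at 2 to 18 cm (1- to 4-leaf stage) in peat moss/vermiculite medium got the same formulation. Visual 0–100 rating versus controls after 14 to 21 d.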

[2] = test system: wheat, spring (spring wheat, Triticum aestivum)
Outline: as §1

[3] = test system: barley, spring (spring barley, Hordeum vulgare)
Outline: as §1

[4] = test system: oat, wild (wild oat, Avena fatua)
Outline: as §1

[5] = test system: field violet (Viola arvensis)
Outline: as §1

[6] = test system: pigweed (Amaranthus retroflexus)
Outline: as §1

[7] = test system: blackgrass (Alopecurus myosuroides)
Outline: as §1

[8] = test system: foxtail, green (green foxtail, Setaria viridis)
Outline: as §1

[9] = test system: chamomile (scentless chamomile, Matricaria inodora)
Outline: as §1

[10] = test system: bluegrass (annual bluegrass, Poa annua)
Outline: as §1

[11] = test system: canarygrass (Phalaris minor)
Outline: as §1

[12] = test system: buckwheat, wild (wild buckwheat, Polygonum convolvulus)
Outline: as §1

[13] = test system: radish, wild (wild radish, Raphanus raphanistrum)
Outline: as §1

[14] = Postemergence, 31 g ai/ha, scale 0 to 100 (0 no effect, 100 complete control)
[15] = Postemergence, 125 g ai/ha, visual rating on scale 0 (no effect) to 100 (complete control), 14 to 21 d
[16] = Postemergence, 250 g ai/ha, scale 0 to 100 (0 no effect, 100 complete control)
[17] = Preemergence, 125 g ai/ha, scale 0 to 100 (0 no effect, 100 complete control)
[18] = Preemergence, 250 g ai/ha, scale 0 to 100 (0 no effect, 100 complete control)
[19] = postemergence, 62 g ai/ha, scale 0 to 100, 0 no effect, 100 complete control
[20] = Preemergence, 62 g ai/ha, scale 0 to 100 (0 no effect, 100 complete control)

Cc1nn(C)c(=O)c(-c2c(C)sc3ccc(Cl)cc23)c1O [Compound 104]
100: Plant response rating (scale of 0 to 100), Ryegrass, Italian ([1]; Preemergence, 31 g ai/ha) | Plant response rating (scale of 0 to 100), Ryegrass, Italian ([1]; Preemergence, 62 g ai/ha) | Plant response rating, Ryegrass, Italian [1, 17] | Plant response rating, Ryegrass, Italian [1, 18] | Plant response rating, Oat, Wild [4, 16] | Plant response rating, Oat, Wild [4, 18] | Plant response rating (scale of 0 to 100), Field Violet ([5]; Preemergence, 31 g ai/ha) | Plant response rating (scale of 0 to 100), Field Violet ([5]; Preemergence, 62 g ai/ha) | Plant response rating, Field Violet [5, 18] | Pigweed plant response rating [6, 14] | Plant response rating, Pigweed [6, 15] | Plant response rating, Pigweed [6, 16] | Plant response rating (scale of 0 to 100), Pigweed ([6]; Preemergence, 62 g ai/ha) | Plant response rating, Pigweed [6, 17] | Plant response rating, Pigweed [6, 18] | Plant response rating, Pigweed [6, 19] | Plant response rating, Foxtail, Green [8, 17] | Plant response rating, Foxtail, Green [8, 18] | Plant response rating, Chamomile [9, 16] | Plant response rating, Canarygrass [11, 18] | Plant response rating, Buckwheat, Wild [12, 15] | Plant response rating, Buckwheat, Wild [12, 16] | Plant response rating (scale of 0 to 100), Radish, Wild ([13]; Preemergence, 62 g ai/ha) | Plant response rating, Radish, Wild [13, 18]
30: Plant response rating, Wheat, Spring [2, 16] | Foxtail, Green plant response rating [8, 14] | Plant response rating, Bluegrass [10, 16]
5: Plant response rating, Barley, Spring [3, 17]
98: Plant response rating, Field Violet [5, 16]
0: Plant response rating (scale of 0 to 100), Wheat, Spring ([2]; Preemergence, 31 g ai/ha) | Barley, Spring plant response rating [3, 14] | Plant response rating (scale of 0 to 100), Barley, Spring ([3]; Preemergence, 31 g ai/ha) | Plant response rating, Barley, Spring [3, 20] | Plant response rating (scale of 0 to 100), Buckwheat, Wild ([12]; Preemergence, 31 g ai/ha)
35: Plant response rating, Wheat, Spring [2, 17] | Blackgrass plant response rating [7, 14] | Plant response rating (scale of 0 to 100), Bluegrass ([10]; Preemergence, 31 g ai/ha) | Plant response rating, Bluegrass [10, 20]
55: Plant response rating, Buckwheat, Wild [12, 17]
65: Plant response rating, Blackgrass [7, 15] | Plant response rating, Blackgrass [7, 17] | Plant response rating (scale of 0 to 100), Canarygrass ([11]; Preemergence, 31 g ai/ha) | Plant response rating, Canarygrass [11, 19]
15: Plant response rating (scale of 0 to 100), Wheat, Spring ([2]; Preemergence, 62 g ai/ha) | Plant response rating, Wheat, Spring [2, 19] | Plant response rating, Barley, Spring [3, 16] | Plant response rating, Barley, Spring [3, 18]
45: Plant response rating, Wheat, Spring [2, 18] | Canarygrass plant response rating [11, 14]
80: Plant response rating (scale of 0 to 100), Oat, Wild ([4]; Preemergence, 62 g ai/ha) | Plant response rating, Oat, Wild [4, 17] | Chamomile plant response rating [9, 14] | Plant response rating, Canarygrass [11, 15]
25: Plant response rating (scale of 0 to 100), Blackgrass ([7]; Preemergence, 31 g ai/ha)
95: Plant response rating, Ryegrass, Italian [1, 15] | Plant response rating, Ryegrass, Italian [1, 16] | Plant response rating, Ryegrass, Italian [1, 19] | Plant response rating, Oat, Wild [4, 15] | Plant response rating, Field Violet [5, 15] | Plant response rating, Field Violet [5, 17] | Plant response rating, Chamomile [9, 15] | Plant response rating, Canarygrass [11, 17] | Plant response rating, Buckwheat, Wild [12, 18] | Plant response rating, Buckwheat, Wild [12, 19] | Plant response rating, Radish, Wild [13, 16] | Plant response rating (scale of 0 to 100), Radish, Wild ([13]; Preemergence, 31 g ai/ha) | Plant response rating, Radish, Wild [13, 17]
10: Wheat, Spring plant response rating [2, 14] | Plant response rating, Barley, Spring [3, 15] | Plant response rating, Barley, Spring [3, 19] | Bluegrass plant response rating [10, 14] | Plant response rating, Bluegrass [10, 19]
90: Ryegrass, Italian plant response rating [1, 14] | Plant response rating, Oat, Wild [4, 19] | Plant response rating, Field Violet [5, 19] | Plant response rating, Foxtail, Green [8, 16] | Buckwheat, Wild plant response rating [12, 14] | Plant response rating, Radish, Wild [13, 15]
75: Plant response rating (scale of 0 to 100), Oat, Wild ([4]; Preemergence, 31 g ai/ha) | Plant response rating, Blackgrass [7, 18] | Plant response rating, Bluegrass [10, 18] | Plant response rating, Radish, Wild [13, 19]
20: Plant response rating, Wheat, Spring [2, 15] | Plant response rating (scale of 0 to 100), Foxtail, Green ([8]; Preemergence, 31 g ai/ha) | Plant response rating, Bluegrass [10, 15]
85: Oat, Wild plant response rating [4, 14] | Field Violet plant response rating [5, 14] | Plant response rating, Foxtail, Green [8, 15] | Plant response rating, Chamomile [9, 19] | Plant response rating, Canarygrass [11, 16] | Plant response rating (scale of 0 to 100), Canarygrass ([11]; Preemergence, 62 g ai/ha)
60: Plant response rating (scale of 0 to 100), Pigweed ([6]; Preemergence, 31 g ai/ha) | Plant response rating, Blackgrass [7, 20] | Plant response rating, Buckwheat, Wild [12, 20]
40: Plant response rating, Blackgrass [7, 19]
70: Plant response rating, Blackgrass [7, 16] | Plant response rating (scale of 0 to 100), Foxtail, Green ([8]; Preemergence, 62 g ai/ha) | Plant response rating, Foxtail, Green [8, 19] | Plant response rating, Bluegrass [10, 17] | Radish, Wild plant response rating [13, 14]
